# Source: ChEMBL document CHEMBL6115037, “Discovery of novel small molecules targeting TGF-β signaling for the treatment of non-small cell lung cancer” (Eur J Med Chem, 2025)
# The source made the active and inactive calls. The calls are words filed in the database; no cut-off is given here.
# Tests used:
# A549 [1] = test: Antiproliferative activity against human A549 cells assessed as inhibition of cell growth measured after 72 hrs by SRB method; format: functional, cell-based; conditions: A549, 72 h
# [2] = Permeability of the compound in PBS buffer assessed as drug recovery at pH 7.4 incubated for 16 hrs by PAMPA method; format: ADME; conditions: read-out: Drug recovery
# [3] = Water solubility of the compound in PBS buffer at pH 2.0 incubated for 24 hrs under shaking condition by HPLC analysis; format: physicochemical
# [4] = Water solubility of the compound […] at pH 9.0 incubated for 24 hrs under shaking condition by HPLC analysis; format: physicochemical
# [5] = Water solubility of the compound in PBS buffer at pH 7.4 incubated for 24 hrs under shaking condition by HPLC analysis; format: physicochemical
# A549 [6] = test: Downregulation of Smad2/3 phosphorylation level in human A549 cells measured after 48 hrs by Western blot analysis; format: functional, cell-based; conditions: dose 0.05-0.5 µM
# A549 [7] = test: Antiproliferative activity against human A549 cells harbouring TbetaI knockout at 0.5 uM by Western blot analysis; format: functional, cell-based
# A549 [8] = test: Induction of cell cycle arrest in human A549 cells assessed as accumulation at G2/M phase at high concentration measured after 48 hrs by flow cytometric analysis; format: functional, cell-based
# A549 [9] = test: Antitumor activity against human A549 cells xenografted in female BALB/c nude mouse model assessed as decrease in tumor weight at 10 mg/kg via gavage fed with corn oil and measured every other day; format: functional, organism-based
# NCI-H441 = test: Antiproliferative activity against human NCI-H441 cells assessed as inhibition of cell growth measured after 72 hrs by SRB method; format: functional, cell-based; conditions: NCI-H441, 72 h
# A549 [10] = test: Inhibition of cell invasion in human A549 cells incubated for 48 hrs by crystal violet staining based transwell assay; format: functional; conditions: dose 0.05-0.5 µM
# A549 [11] = test: Induction of cell apoptosis in human A549 cells assessed as increase in early apoptotic cells measured after 48 hrs by Annexin V-FITC/PI staining based flow cytometry analysis; format: functional; conditions: dose 0.05-0.5 µM
# A549 [12] = test: Induction of cell apoptosis in human A549 cells assessed as increase in early apoptotic cells at 0.05 uM measured after 48 hrs by Annexin V-FITC/PI staining based flow cytometry analysis; format: functional
# A549 [13] = test: Inhibition of cell invasion in human A549 cells at 0.5 uM incubated for 48 hrs by crystal violet staining based transwell assay relative to control; format: functional
# NCI-H1299 [14] = test: Inhibition of colony formation in human NCI-H1299 cells at 0.05 to 0.5 uM measured after 48 hrs by crystal violet staining based inverted microscopic analysis; format: functional, cell-based; conditions: dose 0.05-0.5 µM
# A549 [15] = test: Inhibition of cell migration in human A549 cells at 0.5 uM incubated for 48 hrs by wound healing assay relative to control; format: functional
# A549 [16] = test: Antitumor activity against human A549 cells xenografted in female BALB/c nude mouse model assessed as decrease in Ki-67 expression at 10 mg/kg via gavage by immunochemical staining based analysis; format: functional, organism-based
# [17] = Toxicity in female BALB/c nude mouse assessed as effect on body weight loss at 10 mg/kg via gavage fed with corn oil for every other day; format: organism-based; conditions: in vivo, po
# NCI-H1299 [18] = test: Antiproliferative activity against human NCI-H1299 cells harbouring TbetaI by Western blot analysis; format: functional, cell-based; conditions: dose 0.05-0.5 µM
# NCI-H1299 [19] = test: Antiproliferative activity against human NCI-H1299 cells assessed as inhibition of cell growth measured after 72 hrs by SRB method; format: functional, cell-based; conditions: NCI-H1299, 72 h
# A549 [20] = test: Induction of cell cycle arrest in human A549 cells assessed as accumulation at G2/M phase measured after 48 hrs by flow cytometric analysis; format: functional, cell-based; conditions: dose 0.05-0.5 µM
# A549 [21] = test: Antitumor activity against human A549 cells xenografted in female BALB/c nude mouse model assessed as decrease in TbetaRI expression level at 10 mg/kg via gavage by Western blot analysis; format: functional, organism-based
# A549 [22] = test: Antiproliferative activity against human A549 cells harbouring si-NC at 0.5 uM by Western blot analysis relative to control; format: functional
# NCI-H522 = test: Antiproliferative activity against human NCI-H522 cells assessed as inhibition of cell growth measured after 72 hrs by SRB method; format: functional, cell-based; conditions: NCI-H522, 72 h
# A549 [23] = test: Inhibition of colony formation in human A549 cells at 0.5 uM measured after 48 days by crystal violet staining based inverted microscopic analysis relative to control; format: functional; conditions: A549, 1152 h, time 48 day
# A549 [24] = test: Antitumor activity against human A549 cells xenografted in female BALB/c nude mouse model assessed as decrease in tumor volume at 10 mg/kg via gavage fed with corn oil and measured every other day; format: functional, organism-based
# A549 [25] = test: Antitumor activity against human A549 cells xenografted in female BALB/c nude mouse model assessed as decrease in TbetaRI level at 10 mg/kg via gavage by immunochemical staining based analysis; format: functional, organism-based
# A549 [26] = test: Inhibition of cell migration in human A549 cells incubated for 48 hrs by wound healing assay; format: functional, cell-based; conditions: dose 0.05-0.5 µM
# A549 [27] = test: Downregulation of TbetaRI protein expression in human A549 cells measured after 48 hrs by Western blot analysis; format: functional, cell-based; conditions: dose 0.05-0.5 µM
smiles,measurement,setting,value
NC1CCC(OC(=O)c2cccc3c4c([nH]c23)CN(C(=O)Cc2ccccc2F)CC4)CC1 (stereo not drawn),IC50,A549 [1],> 5000 nM
CC(=O)Nc1cc(C(=O)NCCO)c2[nH]c3c(c2c1)CCN(C(=O)Cc1ccccc1F)C3,IC50,A549 [1],> 5000 nM
O=C(NCCO)c1cc(NC(=O)C2CCNCC2)cc2c3c([nH]c12)CN(C(=O)Cc1ccccc1F)CC3,IC50,A549 [1],> 5000 nM
O=C(Cc1ccccc1F)N1CCc2c([nH]c3c(C(=O)N4CCC(O)CC4)cccc23)C1,IC50,A549 [1],> 5000 nM
O=C(NC1CCCC1O)c1cccc2c3c([nH]c12)CN(C(=O)Cc1ccccc1F)CC3 (stereo not drawn),IC50,A549 [1],930 nM
O=C(NC1CCC(C(=O)O)C1)c1cccc2c3c([nH]c12)CN(C(=O)Cc1ccccc1F)CC3 (stereo not drawn),IC50,A549 [1],> 5000 nM
O=C(NC1CCC(O)CC1)c1cccc2c3c([nH]c12)CN(C(=O)Cc1ccccc1F)CC3 (stereo not drawn),IC50,A549 [1],490 nM
O=C(NCCO)c1cccc2c3c([nH]c12)CN(C(=O)Nc1ccccc1F)CC3,IC50,A549 [1],> 5000 nM
O=C(NC1CCCC(O)C1)c1cccc2c3c([nH]c12)CN(C(=O)Cc1ccccc1F)CC3 (stereo not drawn),IC50,A549 [1],120 nM
O=C(NCCO)c1cc(NC(=O)C2CCOCC2)cc2c3c([nH]c12)CN(C(=O)Cc1ccccc1F)CC3,IC50,A549 [1],> 5000 nM
NC1CCC(NC(=O)c2cccc3c4c([nH]c23)CN(C(=O)Cc2ccccc2F)CC4)C1 (stereo not drawn),IC50,A549 [1],> 5000 nM
O=C(Cc1ccccc1F)N1CCc2c([nH]c3c(C(=O)N4CCNCC4)cccc23)C1,IC50,A549 [1],> 5000 nM
O=C(Cc1ccccc1F)N1CCc2c([nH]c3c(C(=O)N4CCN(C5COC5)CC4)cccc23)C1,IC50,A549 [1],> 5000 nM
C=CC(=O)Nc1cc(C(=O)NCCO)c2[nH]c3c(c2c1)CCN(C(=O)Cc1ccccc1F)C3,IC50,A549 [1],> 5000 nM
O=C(Cc1ccccc1F)N1CCc2c([nH]c3c(C(=O)N4CCC(O)C4)cccc23)C1 (stereo not drawn),IC50,A549 [1],> 5000 nM
O=C(NCCO)c1cccc2c3c([nH]c12)CN(C(=O)Cc1ccco1)CC3,IC50,A549 [1],4010 nM
O=C(NC1CCCCC1O)c1cccc2c3c([nH]c12)CN(C(=O)Cc1ccccc1F)CC3 (stereo not drawn),IC50,A549 [1],> 5000 nM
O=C(Cc1ccccc1F)N1CCc2c([nH]c3c(C(=O)N4CCC(CO)CC4)cccc23)C1,IC50,A549 [1],> 5000 nM
O=C(NCCO)c1cccc2c3c([nH]c12)CN(C(=O)Cc1cccs1)CC3,IC50,A549 [1],380 nM
C[C@]12CC[C@H]3[C@@H](CCC4=CC(=O)CC[C@@]43C)[C@@H]1CC[C@@H]2O [TESTOSTERONE],recovery at 16 h,[2],85.6%
O=C(NCCO)c1cccc2c3c([nH]c12)CN(C(=O)Cc1c(F)cccc1F)CC3,IC50,A549 [1],> 5000 nM
O=C(NCCO)c1cccc2c3c([nH]c12)CN(C(=O)NCc1ccccc1F)CC3,IC50,A549 [1],> 5000 nM
O=C(NC1CCCC1O)c1cccc2c3c([nH]c12)CN(C(=O)Cc1cccs1)CC3 (stereo not drawn),IC50,A549 [1],70 nM
O=C(Cc1ccccc1)N1CCc2c([nH]c3ccccc23)C1,recovery at 16 h,[2],24.4%
same,solubility thermodynamic at 24 h,[3],2.23 µM
same,IC50,A549 [1],9130 nM
same,solubility thermodynamic at 24 h,[4],10.7 µM
same,solubility thermodynamic at 24 h,[5],7.24 µM
O=C(NC1CCC(O)C1)c1cccc2c3c([nH]c12)CN(C(=O)Cc1cccs1)CC3 (stereo not drawn),Activity,A549 [6],Dose-dependent-effect
same,Activity,A549 [7],inactive
same,recovery at 16 h,[2],65.8%
same,Activity,A549 [8],Active
same,Activity,A549 [9],Active
same,solubility thermodynamic at 24 h,[3],40 µM
same,IC50,A549 [1],50 nM
same,IC50,NCI-H441,90 nM
same,inhibition,A549 [10],Dose-dependent-effect
same,Activity,A549 [11],Dose-dependent-effect
same,Activity,A549 [12],Active
same,inhibition at 0.5 µM,A549 [13],100%
same,inhibition,NCI-H1299 [14],Active
same,solubility thermodynamic at 24 h,[4],50.4 µM
same,inhibition at 0.5 µM,A549 [15],100%
same,Activity,A549 [16],Active
same,Activity,[17],Non-toxic
same,Activity,NCI-H1299 [18],Dose-dependent-effect
same,IC50,NCI-H1299 [19],210 nM
same,Activity,A549 [20],Dose-dependent-effect
same,Activity,A549 [21],Active
same,Activity,A549 [22],100%
same,IC50,NCI-H522,260 nM
same,inhibition at 0.5 µM,A549 [23],100%
same,Activity,A549 [24],Active
same,Activity,A549 [25],Active
same,inhibition,A549 [26],Dose-dependent-effect
same,Activity,A549 [27],Dose-dependent-effect
same,solubility thermodynamic at 24 h,[5],41.4 µM
CN(Cc1cnc2nc(N)nc(N)c2n1)c1ccc(C(=O)N[C@@H](CCC(=O)O)C(=O)O)cc1 [METHOTREXATE],recovery at 16 h,[2],96.2%
O=C(NCCO)c1cccc2c3c([nH]c12)CN(S(=O)(=O)Cc1ccccc1F)CC3,IC50,A549 [1],1640 nM
NCCC(=O)Nc1cc(C(=O)NCCO)c2[nH]c3c(c2c1)CCN(C(=O)Cc1ccccc1F)C3,IC50,A549 [1],> 5000 nM
O=C(NC12CC3CC(CC(O)(C3)C1)C2)c1cccc2c3c([nH]c12)CN(C(=O)Cc1ccccc1F)CC3,IC50,A549 [1],130 nM
O=C(NC1CCC(O)C1)c1cccc2c3c([nH]c12)CN(C(=O)Cc1ccccc1F)CC3 (stereo not drawn),IC50,A549 [1],220 nM
O=C(NCCO)c1cccc2c3c([nH]c12)CN(C(=O)Cc1ccccc1F)CC3,IC50,A549 [1],220 nM
